Results reported in US12570638B2, “Fused imidazole derivatives as AHR antagonists” (Sail Biomedicines, Inc., priority 2020, dated 2026).
pIC50: −log10 of the molar value. Converted amounts (≈) assume the structure as drawn. Like-named read-outs stand apart in the source and are kept apart here.

How the values were obtained:
AHR = target: T1, AHR (Homo sapiens, UniProt P35869); test: DRE-Luciferase Reporter Assay (HepG2 AhR-Lucia reporter cells); format: cell-based; conditions: luciferase activity with AHR activating ligand at EC50, read-out: HepG2-Luc IC50
T1 construct: other cell line with a DRE-luciferase reporter stably transfected; endogenous in cells; host or cells: Human HepG2 liver carcinoma AhR-Lucia reporter cells
T1 sequence (P35869 11-848): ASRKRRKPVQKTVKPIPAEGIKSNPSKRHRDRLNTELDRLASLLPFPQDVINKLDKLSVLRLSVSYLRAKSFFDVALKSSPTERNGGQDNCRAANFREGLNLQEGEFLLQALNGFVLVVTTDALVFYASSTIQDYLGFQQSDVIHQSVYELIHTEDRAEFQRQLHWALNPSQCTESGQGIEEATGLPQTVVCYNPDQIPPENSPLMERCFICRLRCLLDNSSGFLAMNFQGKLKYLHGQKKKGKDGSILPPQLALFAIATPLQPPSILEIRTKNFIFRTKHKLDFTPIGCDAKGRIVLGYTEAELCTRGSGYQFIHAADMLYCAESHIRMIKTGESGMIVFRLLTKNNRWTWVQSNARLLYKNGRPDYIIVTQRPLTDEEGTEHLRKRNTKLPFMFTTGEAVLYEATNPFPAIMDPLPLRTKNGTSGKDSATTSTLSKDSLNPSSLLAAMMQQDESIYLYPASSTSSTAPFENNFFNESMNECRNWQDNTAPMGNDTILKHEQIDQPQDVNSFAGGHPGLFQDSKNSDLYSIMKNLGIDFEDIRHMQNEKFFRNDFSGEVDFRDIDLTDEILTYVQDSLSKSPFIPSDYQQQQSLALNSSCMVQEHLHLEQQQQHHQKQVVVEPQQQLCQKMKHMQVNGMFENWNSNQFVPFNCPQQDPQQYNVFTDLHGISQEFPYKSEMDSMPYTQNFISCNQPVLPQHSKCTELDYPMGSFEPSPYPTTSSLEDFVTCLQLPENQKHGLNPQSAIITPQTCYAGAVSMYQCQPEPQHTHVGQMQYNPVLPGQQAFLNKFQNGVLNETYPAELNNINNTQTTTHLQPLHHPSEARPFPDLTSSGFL
Text: AHR binds to Dioxin Responsive Elements (DRE) upstream of genes that it activates. One measure of AHR activity is activation of a reporter gene, such as luciferase, downstream of one or multiple DRE elements. Luciferase activity will reflect activation and inhibition of AHR in the cells expressing his reporter. 20000 Human HepG2 liver carcinoma—AhR-Lucia reporter cells or Human HT29 colon adenocarcinoma—AhR reporter cells or other cell line with a DRE-luciferase reporter stably transfected were plated in Eagle's Minimal Essential Medium, 10% heat-inactivated FBS, 1× non-essential amino acids Pen-Strep (10,000 U/mL) and Normocin (100 ug/mL) in plates (96-well, 384-well or other plates) and incubated overnight at 37° C. in a CO2 incubator and treated with and without AhR antagonists at a log dilution starting at 100 uM.
After 1 hr that cells were plated an AHR activating ligand, such as TCDD, kynurenine, ITE (2-(1H-indole-3-ylcarbonyl)-4-thiazolecarboxylic methyl ester), VAF347, BNF (beta-naphthoflavone), FICZ (6-formylindolo(3,2-b) carbazole) or other AHR ligands at their specific EC50 concentration, were added to the cells with or without AHR antagonist.
Cells were incubated for 24 or 48 hours or another time point and then, supernatant was analyzed for determination of luciferase activity as a read-out of the AHR activation or inhibition. Luciferase was measured with the commercial kit QUANTI-Luc™ assay solution kit from Invivogen following the manufacturer's instructions.
The level of luciferase with only agonist ligand added was the maximum signal while the luciferase with […] was the minimum signal. IC50 values were determined as the concentration which inhibits half of the luciferase activity.

[1] = Solubility Determination Assay (PBS, LC-MS/MS); format: physicochemical; conditions: aqueous buffer, kinetic from dmso stock
Description: The stock solutions of test compounds and control compound progesterone were prepared in DMSO at the concentrations of 10 mM. 15 μL of stock solution (10 mM) of each sample was placed in order into their proper 96-well rack. 485 μL of PBS pH 1.6 and pH 7.4 were added into each vial of the cap-less Solubility Sample plate. The assay was performed in singlet. One stir stick was added to each vial and then the vial was sealed using a molded PTFE/Silicone plug. […] After completion of the 2 hours, plugs were removed and the stir sticks were removed using a big magnet. The samples from the Solubility Sample plate were transferred into the filter plate. Using the Vacuum Manifold, all the samples were filtered. An aliquot of 5 μL was taken from the filtrate followed by addition of 495 μL of a mixture of H2O and acetonitrile containing internal standard (1:1). A certain proportion of ultrapure water was used to dilute the diluent according to the peak shape. The dilution factor was changed according to the solubility values and the LC-MS signal response.
From the 10 mM DMSO STD plate, 6 μL was transferred into the remaining empty plate, and then 194 μL of DMSO were added to that plate to have a STD concentration of 300 μM. From the 300 μM DMSO STD plate, 5 μL were transferred into the remaining empty plate, and then 495 μL of a mixture of H2O and acetonitrile containing internal standard (1:1) were added to that plate to have a final STD concentration of 3 μM. A certain proportion of ultrapure water was used to dilute the diluent according to the peak shape. The concentrations of the standard samples were changed according to the LC-MS signal response.
The plate was placed into the well plate autosampler. The samples were evaluated by LC-MS/MS analysis.
All calculations were carried out using Microsoft Excel.
The filtrate was analyzed and quantified against a standard of known concentration using LC coupled with mass spectral peak identification and quantitation. Solubility values of the test compound and control compound were calculated as follows: […]
Any value of the compounds that was not within the specified limits was rejected and the experiment was repeated.
“+++” indicates a solubility value equal to or greater than 10 μM, “++” indicates a solubility value between 1 and 10 μM, and “+” indicates a solubility value less than 1 μM.

[2] = Liver Microsome Stability Assay, human; format: in vitro ADME; conditions: human liver microsomes, with NADPH, 1 μM compound, read-out: Human liver microsome clearance
Description: The master solution was prepared according to Table 6.
Two separate experiments were performed as follows.
With Cofactors (NADPH): 25 μL of 10 mM NADPH was added to the incubations. The final concentrations of microsomes and NADPH were 0.5 mg/mL and 1 mM, respectively. The final concentration of microsomes was 0.5 mg/mL. The mixture was pre-warmed at 37° C. for 10 minutes. The reaction was started with the addition of 2.5 μL of 100 μM control compound or test compound solutions. Verapamil was used as positive control in this study. The final concentration of test compound or control compound was 1 μM. The incubation solution was incubated in water batch at 37° C. Aliquots of 25 μL were taken from the reaction solution at 0.5, 5, 15, 30 and 60 minutes. The reaction was stopped by the addition of 5 volumes of cold acetonitrile with IS (200 nM caffeine and 100 nM tolbutamide). Samples were centrifuged at 3, 220 g for 40 minutes. Aliquot of 100 μL of the supernatant was mixed with 100 μL of ultra-pure H2O and then used for LC-MS/MS analysis.
Data Analysis: All calculations were carried out using Microsoft Excel. Peak areas were determined from extracted ion chromatograms. The slope value, k, was determined by linear regression of the natural logarithm of the remaining percentage of the parent drug vs. incubation time curve.
The in vitro half-life (in vitro t1/2) was determined from the slope value: in vitro t1/2=−([…]/k)
Conversion of the in vitro t1/2 (min) into the in vitro intrinsic clearance (in vitro CLint, in μL/min/mg protein) was done using the following equation (mean of duplicate determinations):
The calculations of Scaled-up CLint (mL/min/kg), Predicted CLH (mL/min/kg) and EH were done using the following equation: Scaled-up CLint=(0.693/t1/2)×(1/(microsomal protein concentration(0.5 mg/mL)))×Scaling Factors; Predicted CLH=(QH×Scaled-up CLint×fub)/(QH+Scaled-up CLint×fub); EH=Predicted CLH/QH • where QH is the hepatic blood flow (mL/min/kg) (Table 7), • fub is the fraction of unbound drug in plasma which is assumed to be 1. […]

[3] = PBS pH 1.6, 25° C., read-out: Aq. Solubility at pH = 1.6
[4] = PBS pH 7.4, 25° C., read-out: Aq. Solubility at pH = 7.4

| Structure (SMILES) | pIC50 (AHR) | solubility at 2 h [1, 3] | solubility at 2 h [1, 4] | CLint scaled at 1 μM [2] |
| --- | --- | --- | --- | --- |
| Cc1ccccc1-c1nc2ccc(NC(=O)c3ncnn3C)cc2[nH]1 [G, 1-methyl-N-(2-(o-tolyl)-1H-benzo[d]imidazol-6-yl)-1H-1,2,4-triazole-5-carboxamide] | 6.30 to 7.00 | – | – | – |
| Cn1nccc1C(=O)Nc1ccc2nc(-c3ccccc3C(F)F)[nH]c2c1 [Compound C, N-(2-(2-(difluoromethyl)phenyl)-1H-benzo[d]imidazol-6-yl)-1-methyl-1H-pyrazole-5-carboxamide] | 6.30 to 7.00 | > 10 µM | 1 to 10 µM (≈ 0.367 to 3.67 µg/mL) | < 10 mL/min/kg |
| Cc1ccccc1-c1nc2ccc(NC(=O)c3ccnn3C)cc2[nH]1 [B, 1-methyl-N-(2-(o-tolyl)-1H-benzo[d]imidazol-6-yl)-1H-pyrazole-5-carboxamide] | 6.30 to 7.00 | – | – | – |
| Cn1ncnc1C(=O)Nc1ccc2nc(-c3ccccc3C(F)F)[nH]c2c1 [D, N-(2-(2-(difluoromethyl)phenyl)-1H-benzo[d]imidazol-6-yl)-1-methyl-1H-1,2,4-triazole-5-carboxamide] | > 7.00 | > 10 µM | 1 to 10 µM (≈ 0.368 to 3.68 µg/mL) | – |
